US20060003362A1, “ENT1 transporters expressed in cancer cells” (Xenoport, Inc., priority 2004, published 2006)

Molecular target: T1, ENT1 (Homo sapiens, UniProt Q99808)
T1 construct: expressed in transfected cells; host or cells: Xenopus oocytes injected with ENT1 cRNA
T1 sequence (Q99808 1-456): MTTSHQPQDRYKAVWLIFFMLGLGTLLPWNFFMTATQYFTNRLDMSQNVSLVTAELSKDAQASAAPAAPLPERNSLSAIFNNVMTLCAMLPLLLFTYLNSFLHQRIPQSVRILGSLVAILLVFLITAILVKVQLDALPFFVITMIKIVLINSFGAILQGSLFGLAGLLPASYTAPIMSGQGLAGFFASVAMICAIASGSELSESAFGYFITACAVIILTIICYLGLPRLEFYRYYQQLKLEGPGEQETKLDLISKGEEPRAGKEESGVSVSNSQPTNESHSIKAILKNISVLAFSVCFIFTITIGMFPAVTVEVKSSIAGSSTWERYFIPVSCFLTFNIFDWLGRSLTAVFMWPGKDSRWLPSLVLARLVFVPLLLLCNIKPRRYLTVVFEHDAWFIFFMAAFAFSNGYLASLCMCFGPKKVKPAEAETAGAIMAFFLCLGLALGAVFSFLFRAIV
Assay: Uptake of radiolabel into Xenopus oocytes expressing ENT1
Type: cell-based
Details: Xenopus oocytes injected with ENT1 cRNA, 10 minutes, scintillation counting
Procedure: To assess transport function of a specific transporter protein, it can be desirable to clone the cDNA and express the protein in cells that have low endogenous transport activity. Human ENT1 was cloned by PCR, fully sequenced, and subcloned into plasmids that can be used for expression in mammalian cells or Xenopus oocytes. […] For expression in Xenopus oocytes, in vitro ENT1 cRNA was prepared and injected into defoliculated oocytes.
Oocytes expressing ENT1 or control oocytes not expressing ENT1 were incubated in an oocyte ringers (ND96) buffer (90 mM NaCl, 10 mM HemiNa HEPES, 2 mM KCl, 1 mM MgCl, 1.8 mM CaCl2) containing 0.5% bovine serum albumin and 3H urindine (10^6 CPM/ml) for 10 minutes. Oocytes were washed and uptake of radiolabel quantified by scintillation counting.

uptake into oocytes expressing ENT1 versus noninjected controls: higher levels
Structure (SMILES): Nc1ccn([C@@H]2O[C@H](CO)[C@@H](O)C2(F)F)c(=O)n1 [^3H-gemcitabine, gemcitabine]
